In ChEMBL document CHEMBL1131357, “New bronchodilators selected by molecular topology” (1998):

Legend:
Format in all cases: functional
[1] = organism: Cavia porcellus; experiment: Percent relaxation using isolated guinea pig trachea.
[2] = organism: Cavia porcellus; experiment: Percent relaxation of isolated guinea pig trachea.
[3] = organism: Cavia porcellus; experiment: pD2 value (pD2 = -log EC50) was calculated using indometazine in guinea pig trachea
[4] = organism: Cavia porcellus; experiment: Compound was evaluated for the percent of relaxation using isolated guinea pig trachea at a dose of 1 mM
[5] = organism: Cavia porcellus; experiment: Compound was evaluated for the percent of relaxation using isolated guinea pig trachea

Structure (SMILES)	Relaxation [1] [%]	pD2 [2]	pD2 [3]	Emax at 1000 µM [4] [%]	Relaxation [5] [%]
O=C(O)c1ccc2c(c1)S(=O)(=O)c1ccccc1C2=O	85	4.65	–	–	–
N#Cc1ccc2c(c1)S(=O)(=O)c1ccccc1C2=O	13	4.53	–	–	–
Cc1nc2c(o1)CC1C=CC=CC1=CC2O (stereo not drawn)	37	4.8	–	–	–
Cc1ccc(S(=O)(=O)N2CCCSCC2)cc1	0	–	–	–	–
COC(=O)C1C2CCC(O2)C1C(=O)OC (stereo not drawn)	28	4.8	–	–	–
C[C@]12CCC(=O)C=C1CCCC2=O	22	4.5	–	–	–
NC(=O)c1ccc2c(c1)S(=O)(=O)c1ccccc1C2=O	18	5.69	–	–	–
O=C(CN1CCNCC1)N1CCCC1	59	4.6	–	–	–
CC(=O)CC(c1ccc([N+](=O)[O-])cc1)c1c(O)c2ccccc2oc1=O (stereo not drawn) [ACENOCOUMAROL]	69	4.55	–	–	–
Nc1nccs1 [AMINOTHIAZOLE]	19	4.4	–	–	–
Oc1ccc2c(O)c3ccccc3cc2c1O [ANTHRAROBIN]	92	5.69	–	–	–
Cc1c(C2(c3cc(Br)c(O)c(Br)c3C)OS(=O)(=O)c3ccccc32)cc(Br)c(O)c1Br [BROMCRESOL GREEN]	21	4.5	–	–	–
O=S1(=O)OC(c2cc(Br)c(O)c(Br)c2)(c2cc(Br)c(O)c(Br)c2)c2ccccc21 [BROMOPHENOL BLUE]	51	4.5	–	–	–
O=C(O)c1cn(C2CC2)c2cc(N3CCNCC3)c(F)cc2c1=O [CIPROFLOXACIN]	0	–	–	–	–
O=C1c2ccccc2S(=O)(=O)c2cc(-c3nn[nH]n3)ccc21 [DOXANTRAZOLE]	91	5.5	–	–	–
OC(Cn1cncn1)(Cn1cncn1)c1ccc(F)cc1F [FLUCONAZOLE]	-51	–	–	–	–
COC1=CC(=O)C[C@@H](C)[C@]12Oc1c(Cl)c(OC)cc(OC)c1C2=O [GRISEOFULVIN]	74	4.8	–	–	–
CCCCC(CC)CN1CN(CC(CC)CCCC)CC(C)(N)C1 (stereo not drawn) [HEXETIDINE]	-94	–	–	–	–
Cc1occc(=O)c1O [MALTOL]	16	5.25	–	–	–
CCN(CC)c1ccc2nc3c4ccccc4c(=O)cc-3oc2c1 [NILE RED]	0	–	–	–	–
CCn1cc(C(=O)O)c(=O)c2cc(F)c(N3CCNCC3)cc21 [NORFLOXACIN]	0	–	–	–	–
CCCCC1C(=O)N(c2ccccc2)N(c2ccccc2)C1=O [PHENYLBUTAZONE]	28	–	4.69	–	–
CCn1cc(C(=O)O)c(=O)c2cnc(N3CCCC3)nc21 [PIROMIDIC ACID]	25	5.3	–	–	–
Cc1c(C(C)C)c(=O)n(-c2ccccc2)n1C [PROPYPHENAZONE]	29	5.69	–	–	–
C[n+]1cc2c3c(ccc2c2ccc4cc5c(cc4c21)OCO5)OCO3 [SANGUINARIUM]	-89	–	–	–	–
CN1C(C(=O)Nc2ccccn2)=C(O)c2sccc2S1(=O)=O [TENOXICAM]	32	–	5.2	–	–
Cn1c(=O)c2nc[nH]c2n(C)c1=O.O [THEOPHYLLINE]	–	4.69	–	100	77.1
